Measured values published in patent publication US7217688B2, “Methods and compositions for derepression of IAP-inhibited caspase” (The Burnham Institute, priority 2005, dated 2007).
Square brackets hold non-standard residues; d marks the D form. Ends that are not written are not given here. * marks the point of attachment. Phe(4-Cl) = N[C@@H](Cc1ccc(Cl)cc1)C(=O)O; dPhe(4-Cl) = N[C@H](Cc1ccc(Cl)cc1)C(=O)O; dPhe(4-F) = N[C@H](Cc1ccc(F)cc1)C(=O)O; 2Nal = N[C@@H](Cc1ccc2ccccc2c1)C(=O)O; d2Nal = N[C@H](Cc1ccc2ccccc2c1)C(=O)O; Fmoc = O=C(OCC1c2ccccc2-c2ccccc21)*; 2Thi = N[C@@H](Cc1cccs1)C(=O)O; Cha = N[C@@H](CC1CCCCC1)C(=O)O

Key:
Jurkat leukemia cells = assay: Jurkat cell death (Annexin V / propidium iodide flow cytometry); format: cell-based; details: for ability to induce apoptosis in Jurkat cells: micromolar concentrations, compared to DMSO control
Description: The following assay was used to test the ability of individual compounds from the TPI 1396 and TPI 1391 libraries to induce apoptosis of cultured tumor cell lines. Each of the compounds listed in Table IX was individually added to Jurkat leukemia cells (6.25×10^5 cells/mL) in RPMI containing 2.5% FBS at various concentrations for 20 hours. After incubation, cells were washed and stained with FITC-conjugated Annexin V antibody and propidium iodide (Biovision; Mountain View, Calif.). Cells were incubated for 20 minutes at room temperature in the dark and fluorescence was measured by flow cytometry (FACScan, Immunocytometry system; Becton-Dickinson; San Jose, Calif.). Cells staining positive for Annexin V were deemed non-viable.

full length XIAP = full length XIAP (Homo sapiens, UniProt P98170); assay: potency of IAP antagonists at restoring caspase-3 activity / SMAC competition assay (Table VIII)
Sequence of full length XIAP (P98170 whole entry): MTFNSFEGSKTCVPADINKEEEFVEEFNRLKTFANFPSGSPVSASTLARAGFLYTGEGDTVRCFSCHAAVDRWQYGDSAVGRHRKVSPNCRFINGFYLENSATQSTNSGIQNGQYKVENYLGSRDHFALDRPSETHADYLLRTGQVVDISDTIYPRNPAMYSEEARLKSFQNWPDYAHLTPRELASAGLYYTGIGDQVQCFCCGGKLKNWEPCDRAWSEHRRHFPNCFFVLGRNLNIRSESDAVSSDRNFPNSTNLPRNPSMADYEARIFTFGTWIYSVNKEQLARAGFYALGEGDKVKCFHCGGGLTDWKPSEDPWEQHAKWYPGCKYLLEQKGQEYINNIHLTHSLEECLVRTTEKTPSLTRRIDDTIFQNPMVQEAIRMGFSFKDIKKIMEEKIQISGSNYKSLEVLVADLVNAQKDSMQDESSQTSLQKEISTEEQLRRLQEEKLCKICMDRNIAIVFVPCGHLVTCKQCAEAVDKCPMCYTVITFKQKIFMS

[1] = tested on: NCI panel of 60 tumor cell lines; assay: NCI panel of 60 tumor cell lines, protein-based colorimetric assay; set-up: species or system human; details: 48 hours
Description: Selected polyphenylurea compounds were tested on the National Cancer Institute (NCI) panel of 60 tumor cell lines (see FIG. 28a and FIG. 29).

XIAP-inhibited caspase-3 = biological target: T1, XIAP-inhibited caspase-3 (Homo sapiens, UniProt P98170); assay: caspase derepression assay (XIAP-inhibited caspase-3, Ac-DEVD-AFC hydrolysis); format: biochemical; details: for Activity: Table XIV, XIAP derepression assay; for LC (lowest concentration with a ratio of 2 or higher in the derepression assay): tested at 0.4, 2, 10 and 50 micrograms per milliliter; for reversing XIAP-mediated suppression of caspase 3: 50 μg/ml, full length XIAP
T1 construct: in the derepression assay using full length XIAP; made in house; host or cells: bacteria
T1 sequence (P98170 whole entry): as above
Description: Caspase activity was assayed by release of 7-amino-4-trifluoromethyl-coumarin (AFC) from Ac-DEVD-AFC synthetic peptide using a Molecular Devices Spectromax 340 (see Zhou et al., J. Biol. Chem. 272:7797–7800 (1997)). […] The ratio of Vmax for hydrolysis of Ac-DEVD-AFC in the presence and absence of the candidate mixture was calculated and used to identify those that contain an agent that derepresses an IAP-inhibited caspase.
Screening of each mixture from the DCR390, TPI 1239 or TPI 1328 library, respectively, using the above described assay was carried out as follows. Each mixture was aliquoted in a 25 microliter volume and in duplicate to a well of a 96 well microtiter plate. […] Fluorescence of liberated AFC was immediately detected from each well for 30 minutes at 30 second intervals. The Vmax for hydrolysis of AC-DEVD-AFC from each well was measured using the softmax software package. Results of the screen for the DCR390 library are shown in Table I. Sets of mixtures having the same position fixed with different respective amino acids are arranged in 6 sections identified with the position number. […] The mixture in each section are arranged in descending order according to apparent velocity in the second column.
Briefly, recombinant proteins were produced in bacteria and purified as described, for example, in Deveraux et al., Nature 388:300–304(1997). […] Generation of fluorogenic AFC (7-amino-4-trifluoromethyl coumarin) product was measured with a spectrofluorometric plate reader in kinetic mode for 30 minutes at 37° C. using excitation and emission wavelengths of 405 nm and 510 nm, respectively. […] Control reactions lacked XIAP, and all assays were conducted in the linear range of substrate hydrolysis to avoid substrate depletion artifacts.

[2] = Table XI, different functionalities at R2

CCCCCCCN1C(=O)C(=O)N(C(CCCC)CNCc2ccccc2)CC1Cc1ccc2ccccc2c1 (stereo not shown) [TPI 1391-21]
% nonviable cells (Jurkat leukemia cells; 1 μM, 20 hours): 16%
% nonviable cells (Jurkat leukemia cells; 5 μM (first column headed 5), 20 hours): 11%
% nonviable cells (Jurkat leukemia cells; 5 μM (second column headed 5), 20 hours): 18%
% nonviable cells (Jurkat leukemia cells; 10 μM, 20 hours): 44%
% nonviable cells (Jurkat leukemia cells; 25 μM, 20 hours): 91%
% nonviable cells (Jurkat leukemia cells; 50 μM, 20 hours): 94%
EC50 (full length XIAP; amount of compound necessary to restore caspase-3 activity to 50% of Vmax): 33.6 µM
Relative Potency (full length XIAP; fold relative to SMAC AVPI tetrapeptide): 3.7

CN(CCCCC(CNC(=O)Nc1ccccc1)N(CC1CCCN1CCC12CC3CC(CC(C3)C1)C2)C(=O)Nc1ccccc1)C(=O)Nc1ccccc1 (stereo not shown) [TPI 1396-11]
average LD50 for the 60 cell lines [1]: 10 ± 2.8 µM
median LD50 for the 60 cell lines [1]: 17 µM
% nonviable cells (Jurkat leukemia cells; 1 µM): 14%
% nonviable cells (Jurkat leukemia cells; 10 μM): 90%
% nonviable cells (Jurkat leukemia cells; 25 µM): 90%
% nonviable cells (Jurkat leukemia cells; 50 µM): 90%
Activity (relative caspase-3 activity, ratio of Vmax with compound to Vmax of caspase-3 and XIAP controls) (XIAP-inhibited caspase-3; Table X, R2 = L-Proline): 2.6
activity in the derepression assay using full length XIAP (XIAP-inhibited caspase-3; active / inactive): active

COc1ccc(CCN(CCCC[C@@H](CN(C(=O)Nc2ccccc2)[C@@H](CNC(=O)Nc2ccccc2)CC2CCCCC2)N(C)C(=O)Nc2ccccc2)C(=O)Nc2ccccc2)cc1 [TPI 1396-25]
Activity (relative caspase-3 activity, ratio of Vmax with compound to Vmax of caspase-3 and XIAP controls) (XIAP-inhibited caspase-3; [2]): 1.6

COc1ccc(CCN(C(=O)Nc2ccccc2)[C@H](Cc2ccccc2)CN(C(=O)Nc2ccccc2)[C@@H](CNC(=O)Nc2ccccc2)CC2CCCCC2)cc1 [TPI 1396-31]
Activity (relative caspase-3 activity, ratio of Vmax with compound to Vmax of caspase-3 and XIAP controls) (XIAP-inhibited caspase-3; [2]): 1.3

CCN1CCC[C@@H]1CN(C)[C@@H](CNC(=O)Nc1ccccc1)CC1CCCCC1 [TPI 1567-5]
Activity (XIAP-inhibited caspase-3): 209 µM

COc1ccc(CCN2CCC[C@@H]2CN(C)[C@@H](CNC(=O)Nc2ccc(C)cc2)CC2CCCCC2)cc1 [TPI 1567-11]
ability to induce apoptosis in Jurkat cells (Jurkat leukemia cells): capable of inducing apoptosis
Activity (XIAP-inhibited caspase-3): 75 µM

COc1ccc(CCN2CCC[C@@H]2CN(C)[C@@H](CNC(=O)Nc2ccc(F)cc2)CC2CCCCC2)cc1 [TPI 1567-12]
ability to induce apoptosis in Jurkat cells (Jurkat leukemia cells): capable of inducing apoptosis
Activity (XIAP-inhibited caspase-3): 124 µM

COc1ccc(CCN2CCC[C@@H]2CN(C)[C@@H](CNC(=O)Nc2ccc(I)cc2)CC2CCCCC2)cc1 [TPI 1567-13]
ability to induce apoptosis in Jurkat cells (Jurkat leukemia cells): capable of inducing apoptosis
Activity (XIAP-inhibited caspase-3): 58 µM

COc1ccc(CCN2CCC[C@@H]2CN(C)[C@@H](CNC(=O)Nc2cc(Br)cc(Br)c2)CC2CCCCC2)cc1 [TPI 1567-14]
ability to induce apoptosis in Jurkat cells (Jurkat leukemia cells): capable of inducing apoptosis
Activity (XIAP-inhibited caspase-3): 81 µM

CN(C[C@@H]1CCCN1CCC12CC3CC(CC(C3)C1)C2)[C@H](CCCCNC(=O)Nc1ccccc1)CNC(=O)Nc1ccccc1 [TPI 1567-18]
Activity (XIAP-inhibited caspase-3): 61 µM

COc1ccc(CCN2C[C@@H](O)C[C@@H]2CN(C(=O)Nc2ccccc2)[C@@H](CNC(=O)Nc2ccccc2)CC2CCCCC2)cc1 [TPI 1567-23]
Activity (XIAP-inhibited caspase-3): 35 µM

COc1ccc(CCN2C[C@@H](O)C[C@@H]2CN(C)[C@@H](CNC(=O)Nc2ccccc2)CC2CCCCC2)cc1 [TPI 1567-24]
Activity (XIAP-inhibited caspase-3): 122 µM

COc1ccc(CCN2CCC[C@H]2CNC(=O)Nc2ccccc2)cc1 [TPI 1572-8]
Activity (XIAP-inhibited caspase-3): >283 µM

O=C(NC[C@@H](CC1CCCCC1)N(C[C@@H]1CCCN1)C(=O)Nc1ccccc1)Nc1ccccc1 [TPI 1572-10]
Activity (XIAP-inhibited caspase-3): >210 µM

CCN1CCC[C@H]1CN(C(=O)Nc1ccccc1)[C@@H](CNC(=O)Nc1ccccc1)CC1CCCCC1 [TPI 1572-11]
Activity (XIAP-inhibited caspase-3): 89 µM

COc1ccc(CCN2CCC[C@H]2CN(C)[C@@H](CNC(=O)Nc2ccccc2)CC2CCCCC2)cc1 [TPI 1572-14]
Activity (XIAP-inhibited caspase-3): 103 µM

COc1ccc(CCN2CCC[C@H]2CN(CCNC(=O)Nc2ccccc2)C(=O)Nc2ccccc2)cc1 [TPI 1572-15]
Activity (XIAP-inhibited caspase-3): 171 µM

COc1ccc(CCN2CCC[C@H]2CN(C(=O)Nc2ccccc2)[C@H](C)CNC(=O)Nc2ccccc2)cc1 [TPI 1572-16]
Activity (XIAP-inhibited caspase-3): 149 µM

CNC[C@@H](CC1CCCCC1)N(C[C@@H]1CCCN1CCc1ccc(OC)cc1)C(=O)Nc1ccccc1 [TPI 1572-17]
Activity (XIAP-inhibited caspase-3): 132 µM

COc1ccc(CCN2CCC[C@H]2CN(C(=O)c2ccccc2)[C@@H](CNC(=O)c2ccccc2)CC2CCCCC2)cc1 [TPI 1572-18]
Activity (XIAP-inhibited caspase-3): 164 µM

COc1ccc(CCN2CCC[C@H]2CN(C(C)=O)[C@@H](CNC(C)=O)CC2CCCCC2)cc1 [TPI 1572-19]
Activity (XIAP-inhibited caspase-3): >219 µM

CCNC(=O)NC[C@@H](CC1CCCCC1)N(C[C@@H]1CCCN1CCc1ccc(OC)cc1)C(=O)NCC [TPI 1572-20]
Activity (XIAP-inhibited caspase-3): 235 µM

COc1ccc(CCN2CCC[C@H]2CN(C(=O)Nc2ccc(C)cc2)[C@@H](CNC(=O)Nc2ccc(C)cc2)CC2CCCCC2)cc1 [TPI 1572-21]
Activity (XIAP-inhibited caspase-3): 69 µM

COc1ccc(CCN2CCC[C@H]2CN(C(=O)Nc2ccc(F)cc2)[C@@H](CNC(=O)Nc2ccc(F)cc2)CC2CCCCC2)cc1 [TPI 1572-22]
Activity (XIAP-inhibited caspase-3): 79 µM

COc1ccc(CCN2CCC[C@H]2CN(C(=O)Nc2ccc([N+](=O)[O-])cc2)[C@@H](CNC(=O)Nc2ccc([N+](=O)[O-])cc2)CC2CCCCC2)cc1 [TPI 1572-23]
Activity (XIAP-inhibited caspase-3): 94 µM

COc1ccc(CCN2CCC[C@@H]2CN(C)[C@H](C)CNC(=O)Nc2ccccc2)cc1 [TPI 1577-1]
Activity (XIAP-inhibited caspase-3): 252 µM

COc1ccc(CCN2CCC[C@@H]2CN(C)CCNC(=O)Nc2ccccc2)cc1 [TPI 1577-2]
Activity (XIAP-inhibited caspase-3): 157 µM

COc1ccc(CCN2CCC[C@@H]2CN(C)[C@@H](CNC(=O)Nc2ccccc2)CC(C)C)cc1 [TPI 1577-3]
Activity (XIAP-inhibited caspase-3): >241 µM

CN(C[C@H]1CCCN1CCc1ccccc1)[C@@H](CNC(=O)Nc1ccccc1)CC1CCCCC1 [TPI 1577-6]
Activity (XIAP-inhibited caspase-3): 113 µM

CN(C[C@H]1CCCN1CCc1ccc(F)cc1)[C@@H](CNC(=O)Nc1ccccc1)CC1CCCCC1 [TPI 1577-7]
Activity (XIAP-inhibited caspase-3): 71 µM

Cc1ccc(CCN2CCC[C@@H]2CN(C)[C@@H](CNC(=O)Nc2ccccc2)CC2CCCCC2)cc1 [TPI 1577-8]
Activity (XIAP-inhibited caspase-3): 88 µM

COc1ccc(CCN2CCC[C@@H]2CN(C)[C@@H](CNC(=O)Nc2ccc3ccccc3c2)CC2CCCCC2)cc1 [TPI 1577-9]
ability to induce apoptosis in Jurkat cells (Jurkat leukemia cells): capable of inducing apoptosis
Activity (XIAP-inhibited caspase-3): 23 µM

(D-Nal)-(D-pClPhe)-(L-pC1Phe)-(Lys-εFmoc) ([d2Nal][dPhe(4-Cl)][Phe(4-Cl)]K(Fmoc)) [TPI 792-9]
LC (lowest concentration with a ratio of 2 or higher in the derepression assay) (XIAP-inhibited caspase-3): 10 µg/mL

(D-Nal)-(L-Nal)-(D-Lys-εFmoc)-(Lys-εFmoc) ([d2Nal][2Nal][dK](Fmoc)K(Fmoc)) [TPI 792-17]
LC (lowest concentration with a ratio of 2 or higher in the derepression assay) (XIAP-inhibited caspase-3): 2 µg/mL

(D-Nal)-(L-Nal)-(L-pClPhe)-(Lys-εFmoc) ([d2Nal][2Nal][Phe(4-Cl)]K(Fmoc)) [TPI 792-15]
LC (lowest concentration with a ratio of 2 or higher in the derepression assay) (XIAP-inhibited caspase-3): 2 µg/mL

(D-Nal)-(Lys-εFmoc)-(L-pClPhe)-(Lys-εFmoc) ([d2Nal]K(Fmoc)[Phe(4-Cl)]K(Fmoc)) [TPI 792-3]
LC (lowest concentration with a ratio of 2 or higher in the derepression assay) (XIAP-inhibited caspase-3): 2 µg/mL

(L-Ala)-(D-Trp)-(L-Trp)-(L-ThiAla) (A[dW]W[2Thi]) [TPI 1332-47]
reversing XIAP-mediated suppression of caspase 3 (XIAP-inhibited caspase-3): Active

(L-Ala)-(L-Trp)-(L-Trp)-(L-ThiAla) (AWW[2Thi]) [TPI 1332-1]
reversing XIAP-mediated suppression of caspase 3 (XIAP-inhibited caspase-3): Active

(L-Cha)-(D-Na1)-(L-Trp)-(L-ThiAla) ([Cha][d2Nal]W[2Thi]) [TPI 1332-41]
reversing XIAP-mediated suppression of caspase 3 (XIAP-inhibited caspase-3): Active

(L-ThiAla)-(D-pClPhe)-(L-pClPhe)-(Lys-εFmoc) ([2Thi][dPhe(4-Cl)][Phe(4-Cl)]K(Fmoc)) [TPI 792-27]
LC (lowest concentration with a ratio of 2 or higher in the derepression assay) (XIAP-inhibited caspase-3): 2 µg/mL

(L-ThiAla)-(Lys-εFmoc)-(D-Nal)-(Lys-εFmoc) ([2Thi]K(Fmoc)[d2Nal]K(Fmoc)) [TPI 792-19]
LC (lowest concentration with a ratio of 2 or higher in the derepression assay) (XIAP-inhibited caspase-3): 2 µg/mL

(L-ThiAla)-(Lys-εFmoc)-(L-pClPhe)-(pF-D-F) ([2Thi]K(Fmoc)[Phe(4-Cl)][dPhe(4-F)]) [TPI 792-22]
LC (lowest concentration with a ratio of 2 or higher in the derepression assay) (XIAP-inhibited caspase-3): 2 µg/mL
